Assay type in all cases: biochemical
The target of assay [1] is K-Ras G12C (Homo sapiens (Human), UniProt P01116+P62937, G12C). The assay can be described thus: Ras-Raf (BRAF RBD) disruption / FRET / MOA assay, KRAS G12C. Conditions: KRAS G12C; Ras-Raf disruption/FRET/MOA assay; read-out: IC50* KRAS G12C FRET data. An outline of the steps: (§1)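 TR-FRET read-out: a drop in ratio relative to DMSO wells marks disruption of the Ras:RAF complex, reported as IC50. Compounds (3-fold series, 10 points, top 30 μM final) incubated 3 h at 25° C before Eu-anti-His 10 nM and APC-anti-GST 50 nM, 1.5 h more.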

The target in assay [2] is K-Ras G13C (Homo sapiens (Human), UniProt P01116+P62937, G13C). The assay can be described thus: Ras-Raf (BRAF RBD) disruption / FRET / MOA assay, KRAS G13C. Conditions: KRAS G13C; Ras-Raf disruption/FRET/MOA assay; read-out: IC50* KRAS G13C FRET data. In short, it runs like this: as §1
Assay [3] deals with KRAS WT (Homo sapiens (Human), UniProt P01116+P62937). The assay can be described thus: Ras-Raf (BRAF RBD) disruption / FRET / MOA assay, KRAS WT. The settings on record: read-out: IC50* KRAS WT FRET data. In short, it runs like this:
as §1

The target in assay [4] is KRAS G13D (Homo sapiens (Human), UniProt P01116+P62937, G13D). The assay can be described thus: Ras-Raf (BRAF RBD) disruption / FRET / MOA assay, KRAS G13D. Conditions: read-out: IC50* KRAS G13D FRET data. In short, it runs like this:
as §1

In assay [5] the target is NRAS G12C (Homo sapiens (Human), UniProt P01111+P62937, G12C). Nature of the assay: Ras-Raf (BRAF RBD) disruption / FRET / MOA assay, NRAS G12C. Conditions: read-out: IC50* NRAS G12C FRET data. In short, it runs like this:
as §1

In assay [6] the target is NRAS Q61R (Homo sapiens (Human), UniProt P01111+P62937, Q61R). The assay can be described thus: Ras-Raf (BRAF RBD) disruption / FRET / MOA assay, NRAS Q61R. Conditions: NRAS Q61R; Ras-Raf disruption/FRET/MOA assay; read-out: IC50* NRAS Q61R FRET data. An outline of the steps:
(§2)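 Compounds were tested as a 10-point 3-fold dilution series from 30 μM final for their ability to drive ternary complex formation between nucleotide-loaded Ras and cyclophilin A, displacing the BRAF RBD. After 3 h at 25° C., anti-His Eu-W1024 (10 nM) and anti-GST allophycocyanin (50 nM) were added for 1.5 h. A TR-FRET ratio decrease versus DMSO gave IC50.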

Assay [7] deals with NRAS WT (Homo sapiens (Human), UniProt P01111+P62937). The assay can be described thus: Ras-Raf (BRAF RBD) disruption / FRET / MOA assay, NRAS WT. The settings on record: read-out: IC50* NRAS WT FRET data. In short, it runs like this:
as §2

pIC50: −log10 of the molar value. Some results are limits rather than exact numbers.

Sequence of NRAS WT (P01111 whole entry): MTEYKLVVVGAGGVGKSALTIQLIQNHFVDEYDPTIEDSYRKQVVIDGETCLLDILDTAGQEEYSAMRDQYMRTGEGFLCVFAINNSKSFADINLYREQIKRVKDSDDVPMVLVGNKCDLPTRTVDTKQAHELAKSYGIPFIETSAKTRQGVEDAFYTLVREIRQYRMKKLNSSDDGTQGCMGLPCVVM
Sequence of NRAS WT (P62937 whole entry): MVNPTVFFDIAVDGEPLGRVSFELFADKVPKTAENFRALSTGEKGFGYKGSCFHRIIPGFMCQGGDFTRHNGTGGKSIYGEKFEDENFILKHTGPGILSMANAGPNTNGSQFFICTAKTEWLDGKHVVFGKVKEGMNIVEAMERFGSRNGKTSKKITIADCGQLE
Sequence of K-Ras G12C (P01116-2 other isoform, or with tags, fused parts or gaps G12C): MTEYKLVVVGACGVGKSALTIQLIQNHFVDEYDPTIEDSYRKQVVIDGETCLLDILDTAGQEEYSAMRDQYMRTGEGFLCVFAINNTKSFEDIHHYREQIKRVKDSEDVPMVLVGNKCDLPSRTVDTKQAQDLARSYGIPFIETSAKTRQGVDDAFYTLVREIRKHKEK
Sequence of K-Ras G12C (P62937 whole entry): as the sequence (P62937 whole entry) above
Sequence of K-Ras G13C (P01116-2 other isoform, or with tags, fused parts or gaps G13C): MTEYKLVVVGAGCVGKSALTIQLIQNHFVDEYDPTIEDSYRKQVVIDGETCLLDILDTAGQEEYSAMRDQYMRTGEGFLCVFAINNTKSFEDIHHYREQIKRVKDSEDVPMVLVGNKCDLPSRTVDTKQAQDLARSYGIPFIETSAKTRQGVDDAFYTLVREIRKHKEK
Sequence of K-Ras G13C (P62937 whole entry): as the sequence (P62937 whole entry) above
Sequence of NRAS G12C (P01111 whole entry G12C): as the sequence (P01111 whole entry) above, with G12C counted along it
Sequence of NRAS G12C (P62937 whole entry): as the sequence (P62937 whole entry) above
Sequence of KRAS G13D (P01116-2 other isoform, or with tags, fused parts or gaps G13D): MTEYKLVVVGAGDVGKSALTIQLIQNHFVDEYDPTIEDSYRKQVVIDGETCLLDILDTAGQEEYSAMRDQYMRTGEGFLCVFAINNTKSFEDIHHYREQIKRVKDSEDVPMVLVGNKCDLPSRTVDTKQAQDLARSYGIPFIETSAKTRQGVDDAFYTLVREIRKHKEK
Sequence of KRAS G13D (P62937 whole entry): as the sequence (P62937 whole entry) above
Sequence of KRAS WT (P01116-2 other isoform, or with tags, fused parts or gaps): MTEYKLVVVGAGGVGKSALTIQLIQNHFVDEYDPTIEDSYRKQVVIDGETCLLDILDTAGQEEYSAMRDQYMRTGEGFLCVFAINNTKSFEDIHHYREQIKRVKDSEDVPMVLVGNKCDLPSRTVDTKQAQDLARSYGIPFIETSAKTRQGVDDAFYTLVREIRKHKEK
Sequence of KRAS WT (P62937 whole entry): as the sequence (P62937 whole entry) above
Sequence of NRAS Q61R (P01111 whole entry Q61R): as the sequence (P01111 whole entry) above, with Q61R counted along it
Sequence of NRAS Q61R (P62937 whole entry): as the sequence (P62937 whole entry) above

As for `C=CC(=O)N1CCC[C@]12CCN(C(=O)N(C)[C@H](C(=O)N[C@H]1Cc3nc(cs3)-c3ccc4c(c3)c(c(-c3cccnc3[C@H](C)OC)n4CC)CC(C)(C)COC(=O)[C@@H]3CCCN(N3)C1=O)C(C)C)C2` (atropisomer, axis not shown) [Example A548], the negative logarithm of the IC50 (pIC50) in assay [1] was 6.00 to 7.00; in assay [2], 5.00 to 6.00; in assay [3] it was 6.00 to 7.00; in assay [4] it was 5.00 to 6.00; in assay [5], 6.00 to 7.00; in assay [6], 6.00 to 7.00. The negative-log IC50 (pIC50) in assay [7] is 6.00 to 7.00.

`C=CC(=O)N1CC[C@H](C(=O)N(C)[C@H](C(=O)N[C@H]2Cc3cc(O)cc(c3)-c3ccc4c(c3)c(c(-c3cccc(=O)n3C(C)C)n4CC)CC(C)(C)COC(=O)[C@@H]3CCCN(N3)C2=O)C(C)C)C1` [Example A151]: the pIC50 was 6.00 to 7.00 in assay [1]; less than 5.00 in assay [2]; less than 5.00 in assay [3]; less than 5.00 in assay [4]; 6.00 to 7.00 in assay [5]; less than 5.00 in assay [6]. Further, in assay [7], the pIC50 is 5.00 to 6.00.

With `C=C(F)C(=O)N1CC(N(C)C(=O)N(C)[C@H](C(=O)N[C@H]2Cc3nc(cs3)-c3ccc4c(c3)c(c(-c3cccnc3[C@H](C)OC)n4CC)CC(C)(C)COC(=O)[C@@H]3CCCN(N3)C2=O)C(C)C)C1` (atropisomer, axis not shown) [Example A732], the pIC50 in assay [1] was 6.00 to 7.00; in assay [2], 6.00 to 7.00; in assay [3] it was 6.00 to 7.00; in assay [4], 5.00 to 6.00; in assay [5] it was 6.00 to 7.00; in assay [6], 6.00 to 7.00. Moreover, the negative-log IC50 (pIC50) in assay [7] is 6.00 to 7.00.

As for `CCn1c(-c2cccnc2[C@H](C)OC)c2c3cc(ccc31)-c1cccc(c1)C[C@H](NC(=O)[C@H](C(C)C)N1CC[C@]3(CCN(C(=O)C#C[C@@H]4COCCN4C)C3)C1=O)C(=O)N1CCC[C@H](N1)C(=O)OCC(C)(C)C2` (atropisomer, axis not shown) [Example A569], the pIC50 in assay [1] is 7.00 to 8.00; in assay [2] it was 5.00 to 6.00; in assay [3] it was 7.00 to 8.00; in assay [4] it was less than 5.00; in assay [5], 7.00 to 8.00; in assay [6], less than 5.00. Besides, in assay [7], the pIC50 is less than 5.00.

As for `C=CC(=O)N1CC[C@H](C(=O)N(C)[C@H](C(=O)N[C@H]2Cc3cccc(c3)-c3ccc4c(c3)c(c(-c3cccnc3[C@H](C)OC)n4CC)CC(C)(C)COC(=O)[C@@H]3CCCN(N3)C2=O)[C@@H](C)C(F)(F)F)C1` (atropisomer, axis not shown) [Example A640], the pIC50 was 6.00 to 7.00 in assay [1]; 6.00 to 7.00 in assay [2]; 5.00 to 6.00 in assay [3]; 5.00 to 6.00 in assay [4]; 6.00 to 7.00 in assay [5]; 5.00 to 6.00 in assay [6]. In assay [7], the negative-log IC50 (pIC50) is 5.00 to 6.00.

Take `C=CC(=O)N(C)CCN1CCN(C(=O)N(C)[C@H](C(=O)N[C@H]2Cc3cccc(c3)-c3ccc4c(c3)c(c(-c3cccnc3[C@H](C)OC)n4CC)CC(C)(C)COC(=O)[C@@H]3CCCN(N3)C2=O)C(C)C)C[C@@H]1C` (atropisomer, axis not shown) [Example A570]: the negative-log IC50 (pIC50) was 6.00 to 7.00 in assay [1]; 7.00 to 8.00 in assay [2]; 6.00 to 7.00 in assay [3]; 5.00 to 6.00 in assay [4]; 6.00 to 7.00 in assay [5]; 6.00 to 7.00 in assay [6]. In addition, the negative logarithm of the IC50 (pIC50) in assay [7] was 6.00 to 7.00.

Turning to `CCn1c(-c2cccnc2[C@H](C)OC)c2c3cc(ccc31)-c1csc(n1)C[C@H](NC(=O)[C@H](C(C)C)N(C)C(=O)N1CCN(C(=O)/C=C/CN(C)C)C[C@@H]1C)C(=O)N1CCC[C@H](N1)C(=O)OCC(C)(C)C2` (atropisomer, axis not shown) [Example A709], the pIC50 was 7.00 to 8.00 in assay [1]; 6.00 to 7.00 in assay [2]; 6.00 to 7.00 in assay [3]; 6.00 to 7.00 in assay [4]; 7.00 to 8.00 in assay [5]; 6.00 to 7.00 in assay [6]. Moreover, in assay [7], the pIC50 was 7.00 to 8.00.

On to `CCn1c(-c2cccnc2[C@H](C)OC)c2c3cc(ccc31)-c1csc(n1)C[C@H](NC(=O)C[C@@H](C)OC1CN(C(=O)C#CC(C)(C)N(C)C)C1)C(=O)N1CCC[C@H](N1)C(=O)OCC(C)(C)C2` (atropisomer, axis not shown) [Example A638], for which the negative-log IC50 (pIC50) was more than 8.00 in assay [1]; 5.00 to 6.00 in assay [2]; 5.00 to 6.00 in assay [3]; 5.00 to 6.00 in assay [4]; more than 8.00 in assay [5]; 5.00 to 6.00 in assay [6]. Also, in assay [7], the pIC50 was 5.00 to 6.00.

For `C=CC(=O)N(C)C[C@H]1CCN1C(=O)N(C)[C@H](C(=O)N[C@H]1Cc2nc(cs2)-c2ccc3c(c2)c(c(-c2cccnc2[C@H](C)OC)n3CC)CC(C)(C)COC(=O)[C@@H]2CCCN(N2)C1=O)C(C)C` (atropisomer, axis not shown) [Example A369], the negative logarithm of the IC50 (pIC50) in assay [1] was 6.00 to 7.00; in assay [2], 6.00 to 7.00; in assay [3] it was 6.00 to 7.00; in assay [4], 5.00 to 6.00; in assay [5] it was 6.00 to 7.00; in assay [6], 6.00 to 7.00. In addition, in assay [7], the negative logarithm of the IC50 (pIC50) was 6.00 to 7.00.

Take `CCn1c(-c2cccnc2[C@H](C)OC)c2c3cc(ccc31)-c1csc(n1)C[C@H](NC(=O)[C@H](C(C)C)N(C)C(=O)N(C)C1CN(C(=O)/C=C/[C@H]3CCCN3C)C1)C(=O)N1CCC[C@H](N1)C(=O)OCC(C)(C)C2` (atropisomer, axis not shown) [Example A729]: the negative logarithm of the IC50 (pIC50) in assay [1] is 6.00 to 7.00; in assay [2], 6.00 to 7.00; in assay [3], 6.00 to 7.00; in assay [4], 6.00 to 7.00; in assay [5], 6.00 to 7.00; in assay [6], 5.00 to 6.00. In addition, the negative-log IC50 (pIC50) in assay [7] was 6.00 to 7.00.

Turning to `C=CC(=O)N1CC[C@]2(COCCN2C(=O)N(C)[C@H](C(=O)N[C@H]2Cc3nc(cs3)-c3ccc4c(c3)c(c(-c3cccnc3[C@H](C)OC)n4CC)CC(C)(C)COC(=O)[C@@H]3CCCN(N3)C2=O)C(C)C)C1` (atropisomer, axis not shown) [Example A676], the pIC50 was 6.00 to 7.00 in assay [1]; 5.00 to 6.00 in assay [2]; 6.00 to 7.00 in assay [3]; 5.00 to 6.00 in assay [4]; 7.00 to 8.00 in assay [5]; 6.00 to 7.00 in assay [6]. Further, the pIC50 in assay [7] was 6.00 to 7.00.

`C=CC(=O)N1CC[C@H](C(=O)N(C)[C@H](C(=O)N[C@H]2Cc3nc(n(C)n3)-c3ccc4c(c3)c(c(-c3cccnc3[C@H](C)OC)n4CC)CC(C)(C)COC(=O)[C@@H]3CCCN(N3)C2=O)C(C)C)C1` (atropisomer, axis not shown) [Example A314]: the pIC50 was 6.00 to 7.00 in assay [1]; 6.00 to 7.00 in assay [2]; 5.00 to 6.00 in assay [3]; 5.00 to 6.00 in assay [4]; 6.00 to 7.00 in assay [5]; 6.00 to 7.00 in assay [6]. Besides, in assay [7], the negative logarithm of the IC50 (pIC50) was 5.00 to 6.00.

For the molecule `C=CC(=O)N1CC2(CCN2C(=O)N(C)[C@H](C(=O)N[C@H]2Cc3cccc(n3)-c3ccc4c(c3)c(c(-c3cccnc3[C@H](C)OC)n4CC)CC(C)(C)COC(=O)[C@@H]3CCCN(N3)C2=O)C(C)C)C1` (atropisomer, axis not shown) [Example A636], the pIC50 was 7.00 to 8.00 in assay [1]; 6.00 to 7.00 in assay [2]; 6.00 to 7.00 in assay [3]; 5.00 to 6.00 in assay [4]; 7.00 to 8.00 in assay [5]; 6.00 to 7.00 in assay [6]. The pIC50 in assay [7] is 6.00 to 7.00.

Broadly, the pIC50 is the negative decadic logarithm of the IC50, by convention in mol/L.

Values taken from patent US11566007B2, “Ras inhibitors” (Revolution Medicines, Inc., priority 2019, dated 2023).
